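Protocol summary: plate cells (96-well), add compound at 5 concentrations, incubate 48 h, interpolate endpoints linearly. GI50: concentration for 50% inhibition of growth.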 Active and inactive are the calls of the source. No stated cut-off is given here; in the data, active = GI50 up to about 1.1 µM and inactive = higher.
Experiments:
Experiment in all cases: NCI-60 cell line screen, 48 h
LXFL 529 = test system: LXFL 529
SNB-19 = test system: SNB-19
SK-MEL-5 = test system: SK-MEL-5
NCI-H522 = test system: NCI-H522
LOX IMVI = test system: LOX IMVI
IGROV-1 = test system: IGROV-1
XF498 = test system: XF498
OVCAR-4 = test system: OVCAR-4
HOP-18 = test system: HOP-18
786-0 = test system: 786-0
COLO 205 = test system: COLO 205
HOP-92 = test system: HOP-92
MOLT-4 = test system: MOLT-4
DMS-273 = test system: DMS-273
HOP-62 = test system: HOP-62
HL-60 = test system: HL-60
HCC 2998 = test system: HCC 2998
OVCAR-5 = test system: OVCAR-5
ACHN = test system: ACHN
Malme-3M = test system: Malme-3M
DMS-114 = test system: DMS-114
SW-620 = test system: SW-620
HCT-116 = test system: HCT-116
KM12 = test system: KM12
SF-539 = test system: SF-539
SR = test system: SR
K562 = test system: K562
CCRF-CEM = test system: CCRF-CEM
UACC-257 = test system: UACC-257
SK-MEL-2 = test system: SK-MEL-2
SNB-78 = test system: SNB-78
OVCAR-3 = test system: OVCAR-3
UACC-62 = test system: UACC-62
RXF 631 = test system: RXF 631
NCI-H23 = test system: NCI-H23
A549 = test system: A549
SNB-75 = test system: SNB-75
M14 = test system: M14
EKVX = test system: EKVX
UO-31 = test system: UO-31
SK-MEL-28 = test system: SK-MEL-28
NCI-H460 = test system: NCI-H460
M19-MEL = test system: M19-MEL
OVCAR-8 = test system: OVCAR-8
HCT-15 = test system: HCT-15
CAKI-1 = test system: CAKI-1
RPMI-8226 = test system: RPMI-8226
KM-20L2 = test system: KM-20L2
U-251 = test system: U-251
DLD-1 = test system: DLD-1
SF-268 = test system: SF-268
SK-OV-3 = test system: SK-OV-3
TK-10 = test system: TK-10
SF-295 = test system: SF-295
HT-29 = test system: HT-29
DU-145 = test system: DU-145
NCI/ADR-RES = test system: NCI/ADR-RES
MDA-N = test system: MDA-N
MDA-MB-231 = test system: MDA-MB-231
PC-3 = test system: PC-3
MCF7 = test system: MCF7
RXF 393 = test system: RXF 393
Hs-578T = test system: Hs-578T
SN12C = test system: SN12C
A498 = test system: A498
T47D = test system: T47D
MDA-MB-435 = test system: MDA-MB-435
BT-549 = test system: BT-549
NCI-H226 = test system: NCI-H226

CCOC(=O)C1C(NC(N)=O)N(Cc2ccccc2)C(=O)N1Cc1ccccc1 (centres undefined)
GI50 (LXFL 529): > 100 µM (inactive) | GI50 (SNB-19): > 100 µM (inactive) | GI50 (SK-MEL-5): > 100 µM (inactive) | GI50 (NCI-H522): > 100 µM (inactive) | GI50 (LOX IMVI): > 100 µM (inactive) | GI50 (IGROV-1): > 100 µM (inactive) | GI50 (XF498): > 100 µM (inactive) | GI50 (OVCAR-4): > 100 µM (inactive) | GI50 (HOP-18): > 100 µM (inactive) | GI50 (786-0): > 100 µM (inactive) | GI50 (COLO 205): > 100 µM (inactive) | GI50 (HOP-92): > 100 µM (inactive) | GI50 (MOLT-4): > 100 µM (inactive) | GI50 (DMS-273): > 100 µM (inactive) | GI50 (HOP-62): > 100 µM (inactive) | GI50 (HL-60): > 100 µM (inactive) | GI50 (HCC 2998): > 100 µM (inactive) | GI50 (OVCAR-5): 29.3 µM (inactive) | GI50 (ACHN): > 100 µM (inactive) | GI50 (Malme-3M): > 100 µM (inactive) | GI50 (DMS-114): > 100 µM (inactive) | GI50 (SW-620): > 100 µM (inactive) | GI50 (HCT-116): > 100 µM (inactive) | GI50 (KM12): > 100 µM (inactive) | GI50 (SF-539): > 100 µM (inactive) | GI50 (SR): > 100 µM (inactive) | GI50 (K562): > 100 µM (inactive) | GI50 (CCRF-CEM): > 100 µM (inactive) | GI50 (UACC-257): > 100 µM (inactive) | GI50 (SK-MEL-2): > 100 µM (inactive) | GI50 (SNB-78): 15.4 µM (inactive) | GI50 (OVCAR-3): > 100 µM (inactive) | GI50 (UACC-62): > 100 µM (inactive) | GI50 (RXF 631): > 100 µM (inactive) | GI50 (NCI-H23): > 10 µM (inactive) | GI50 (A549): > 100 µM (inactive) | GI50 (SNB-75): > 100 µM (inactive) | GI50 (M14): > 100 µM (inactive) | GI50 (EKVX): > 100 µM (inactive) | GI50 (UO-31): > 100 µM (inactive) | GI50 (SK-MEL-28): > 100 µM (inactive) | GI50 (NCI-H460): > 100 µM (inactive) | GI50 (M19-MEL): > 100 µM (inactive) | GI50 (OVCAR-8): > 100 µM (inactive) | GI50 (HCT-15): > 100 µM | GI50 (CAKI-1): > 100 µM (inactive) | GI50 (RPMI-8226): > 100 µM (inactive) | GI50 (KM-20L2): 41.3 µM (inactive) | GI50 (U-251): 17.3 µM (inactive) | GI50 (DLD-1): > 100 µM (inactive) | GI50 (SF-268): > 100 µM (inactive) | GI50 (SK-OV-3): > 100 µM (inactive) | GI50 (TK-10): > 100 µM (inactive) | GI50 (SF-295): > 100 µM (inactive) | GI50 (HT-29): > 100 µM (inactive)

Cc1oc2c(c1C(=O)c1ccccc1)C(=O)c1ccccc1C2=O
GI50 (LXFL 529): 1.62 µM (inactive) | GI50 (SNB-19): 9.91 µM (inactive) | GI50 (SK-MEL-5): 1.24 µM (inactive) | GI50 (NCI-H522): 2.3 µM (inactive) | GI50 (LOX IMVI): 2.22 µM (inactive) | GI50 (DU-145): 11.8 µM (inactive) | GI50 (IGROV-1): 4.99 µM (inactive) | GI50 (XF498): 2.32 µM (inactive) | GI50 (OVCAR-4): 3.21 µM (inactive) | GI50 (HOP-18): 16.6 µM (inactive) | GI50 (786-0): 4.38 µM (inactive) | GI50 (NCI/ADR-RES): 3.52 µM (inactive) | GI50 (COLO 205): 13.9 µM (inactive) | GI50 (HOP-92): 2.21 µM (inactive) | GI50 (MDA-N): 2 µM (inactive) | GI50 (MDA-MB-231): 2.24 µM (inactive) | GI50 (MOLT-4): 2.47 µM (inactive) | GI50 (DMS-273): 8.34 µM (inactive) | GI50 (HOP-62): 14.2 µM (inactive) | GI50 (HL-60): 2.28 µM (inactive) | GI50 (PC-3): 6.79 µM (inactive) | GI50 (HCC 2998): 15.5 µM (inactive) | GI50 (OVCAR-5): 15.2 µM (inactive) | GI50 (ACHN): 4.65 µM (inactive) | GI50 (Malme-3M): 1.81 µM (inactive) | GI50 (DMS-114): 2.45 µM (inactive) | GI50 (SW-620): 1.92 µM (inactive) | GI50 (HCT-116): 3.3 µM (inactive) | GI50 (KM12): 6.55 µM (inactive) | GI50 (SF-539): 10.6 µM (inactive) | GI50 (MCF7): 4.07 µM (inactive) | GI50 (SR): 3.24 µM (inactive) | GI50 (K562): 2.23 µM (inactive) | GI50 (CCRF-CEM): 2.16 µM (inactive) | GI50 (UACC-257): 3.61 µM (inactive) | GI50 (SK-MEL-2): 3.26 µM (inactive) | GI50 (RXF 393): 3.48 µM (inactive) | GI50 (SNB-78): > 100 µM (inactive) | GI50 (OVCAR-3): 2.26 µM (inactive) | GI50 (UACC-62): 2.98 µM (inactive) | GI50 (Hs-578T): 4.57 µM (inactive) | GI50 (RXF 631): 17.7 µM (inactive) | GI50 (NCI-H23): 2.01 µM (inactive) | GI50 (A549): 14.7 µM (inactive) | GI50 (SNB-75): 6.78 µM (inactive) | GI50 (M14): 4.28 µM (inactive) | GI50 (EKVX): 12.6 µM (inactive) | GI50 (UO-31): 9.75 µM (inactive) | GI50 (SK-MEL-28): 11.1 µM (inactive) | GI50 (NCI-H460): 9.38 µM (inactive) | GI50 (SN12C): 11.7 µM (inactive) | GI50 (A498): 19.7 µM (inactive) | GI50 (M19-MEL): 2.18 µM (inactive) | GI50 (T47D): 3.83 µM (inactive) | GI50 (MDA-MB-435): 1.58 µM (inactive) | GI50 (OVCAR-8): 5.06 µM (inactive) | GI50 (BT-549): 6.19 µM (inactive) | GI50 (HCT-15): 4.51 µM | GI50 (CAKI-1): 4.23 µM (inactive) | GI50 (RPMI-8226): 2.85 µM (inactive) | GI50 (KM-20L2): 17.7 µM (inactive) | GI50 (U-251): 7.24 µM (inactive) | GI50 (DLD-1): 5.02 µM (inactive) | GI50 (SF-268): 10.8 µM (inactive) | GI50 (NCI-H226): 13.9 µM (inactive) | GI50 (SK-OV-3): 12.5 µM (inactive) | GI50 (TK-10): 19.1 µM (inactive) | GI50 (SF-295): 9.27 µM (inactive) | GI50 (HT-29): 17.8 µM (inactive)

— ChEMBL document CHEMBL1201862, “PubChem BioAssay data set” (2004)
